What follows are compounds tested against T1, HIV-integrase (Human immunodeficiency virus type 1 group M subtype B, UniProt P12497) (assay: HIV-Integrase Inhibition Activity (SPA strand transfer assay)). Details: recombinant integrase, SPA beads, P33 labeled target DNA; read-out: Activity (IC50 class, HIV-integrase inhibition).
T1 construct: Recombinant integrase (0.26 ng) was incubated with the beads
Assay type: biochemical
Protocol: HIV-Integrase InhibitionActivity. To evaluate in-vitro activity against HIV-integrase, 5 pmole of biotin labeled substrate DNA was bound to 100 μg of Streptavidin coated PVT SPA beads (Amersham Pharmacia Biotech). Recombinant integrase (0.26 ng) was incubated with the beads for 90 min at 37° C. Unbound enzyme was removed by washing the complex followed by addition of inhibitors and 0.1 fmol of P33 labeled target DNA. The reaction was stopped by adding EDTA to a final concentration of 10 mM. Samples were counted in TopCountNXT (Packard) and the CPM was used as a measure of integration. The reaction condition was as described in A. Engelman and R. Craigie, J. Virol. 69, 5908-5911 (1995). The sequences of substrate and target DNA were described in Nucleic Acid Research 22, 1121-1122 (1994). Activity equal to A refers to a compound having IC50=0.002 to 0.10 μM while B and C denote compounds having IC50=0.1 to 1.0 μM and IC50≧1.0 μM respectively.

Compound	IC50 [nM]
2-Thiopheneacetic acid, 5- [[[(4,6,7,9-tetrahydro-3-hydroxy- 9,9-dimethyl-4-oxopyrimido[2,1- c][1,4]oxazin-2- yl)carbonyl]amino]methy]- [Example 55]	100 to 1000
CC1(C)OCCn2c1nc(C(=O)NCc1cc3ccccc3s1)c(O)c2=O [Example 1, Pyrimido[2,1-c][1,4]oxazine-2-carboxamide, N-(benzo[b]thien-2-ylmethyl)-4,6,7,9-tetrahydro-3-hydroxy-9,9-dimethyl-4-oxo-]	2 to 100
Cc1cc(CNC(=O)c2nc3n(c(=O)c2O)CCOC3(C)C)nn1C [Example 2, Pyrimido[2,1-c][1,4]oxazine-2-carboxamide, N-[(1,5-dimethyl-1H-pyrazol-3-yl)methyl]-4,6,7,9-tetrahydro-3-hydroxy-9,9-dimethyl-4-oxo-]	100 to 1000
CC1(C)OCCn2c1nc(C(=O)NCc1csc(-c3ccccc3)n1)c(O)c2=O [Example 3, Pyrimido[2,1-c][1,4]oxazine-2-carboxamide, 4,6,7,9-tetrahydro-3-hydroxy-9,9-dimethyl-4-oxo-N-[(2-phenyl-4-thiazolyl)methyl]-]	100 to 1000
CC1(C)OCCn2c1nc(C(=O)NCc1csc(-c3ccc(Cl)cc3)n1)c(O)c2=O [Example 4, Pyrimido[2,1-c][1,4]oxazine-2-carboxamide, N-[[2-(4-chlorophenyl)-4-thiazolyl]methyl]-4,6,7,9-tetrahydro-3-hydroxy-9,9-dimethyl-4-oxo-]	100 to 1000
CC1(C)OCCn2c1nc(C(=O)NCc1nccs1)c(O)c2=O [Example 5, Pyrimido[2,1-c][1,4]oxazine-2-carboxamide, 4,6,7,9-tetrahydro-3-hydroxy-9,9-dimethyl-4-oxo-N-(2-thiazolylmethyl)-]	≥ 1000
CC1(C)OCCn2c1nc(C(=O)NCc1cnn(-c3ccccc3)c1)c(O)c2=O [Example 6, Pyrimido[2,1-c][1,4]oxazine-2-carboxamide, 4,6,7,9-tetrahydro-3-hydroxy-9,9-dimethyl-4-oxo-N-[(1-phenyl-1H-pyrazol-4-yl)methyl]-]	≥ 1000
Cc1nc(CNC(=O)c2nc3n(c(=O)c2O)CCOC3(C)C)cs1 [Example 7, Pyrimido[2,1-c][1,4]oxazine-2-carboxamide, 4,6,7,9-tetrahydro-3-hydroxy-9,9-dimethyl-N-[(2-methyl-4-thiazolyl)methyl]-4-oxo-]	100 to 1000
Cc1cc(CNC(=O)c2nc3n(c(=O)c2O)CCOC3(C)C)n(C)n1 [Example 8, Pyrimido[2,1-c][1,4]oxazine-2-carboxamide, N-[(1,3-dimethyl-1H-pyrazol-5-yl)methyl]-4,6,7,9-tetrahydro-3-hydroxy-9,9-dimethyl-4-oxo-]	100 to 1000
Cc1ccc(CNC(=O)c2nc3n(c(=O)c2O)CCOC3(C)C)n1C [Example 9, Pyrimido[2,1-c][1,4]oxazine-2-carboxamide, N-[(1,5-dimethyl-1H-pyrrol-2-yl)methyl]-4,6,7,9-tetrahydro-3-hydroxy-9,9-dimethyl-4-oxo-]	2 to 100
Cc1cc(CNC(=O)c2nc3n(c(=O)c2O)CCOC3(C)C)nn1C(C)(C)C [Example 10, Pyrimido[2,1-c][1,4]oxazine-2-carboxamide, N-[[1-(1,1-dimethylethyl)-5-methyl-1H-pyrazol-3-yl]methyl]-4,6,7,9-tetrahydro-3-hydroxy-9,9-dimethyl-4-oxo-]	2 to 100
Cn1c(CNC(=O)c2nc3n(c(=O)c2O)CCOC3(C)C)cc2ccccc21 [Example 11, Pyrimido[2,1-c][1,4]oxazine-2-carboxamide, 4,6,7,9-tetrahydro-3-hydroxy-9,9-dimethyl-N-[(1-methyl-1H-indol-2-yl)methyl]-4-oxo-]	2 to 100
CNC(=O)c1ccoc1CNC(=O)c1nc2n(c(=O)c1O)CCOC2(C)C [Example 12, Pyrimido[2,1-c][1,4]oxazine-2-carboxamide, 4,6,7,9-tetrahydro-3-hydroxy-9,9-dimethyl-N-[[3-[(methylamino)carbonyl]-2-furanyl]methyl]-4-oxo-]	2 to 100
